Source: patent US9243272B2, “Enzyme preparation containing thermostable DNA polymerase, method for producing same, and method for detecting subject organism to be detected” (HOKKAIDO MITSUI CHEMICALS INC., priority 2009, dated 2016)

Legend:
[1] = system: Staphylococcus epidermidis; test: Rapid liquid phase drug sensitivity test, bacteria quantified by real-time PCR (e-DNAP, non-display method); format: cell-based; details: 10 μg/mL; two hours and four hours after culture
Procedure: In current drug sensitivity tests, it generally takes several days to obtain results. However, when the highly sensitive quantification method in accordance with the present invention is applied, results can be obtained in only four to six hours. […] Accordingly, a sensitive test must be started once culture was carried out, so that it takes at least one day to obtain a result. […] When calculation is carried out when the quantification result before culture is defined as 0 and the quantification result two hours after and four hours after culture in which an antibiotic agent was not added is respectively defined as 100 (an enrichment rate when an antibiotic agent was not added is defined as 100%), the enrichment rate was calculated two hours after and four hours after the culture in which an antibiotic agent was added. For example, the amount of bacteria/fungi before culture is […], the amount of bacteria two hours after culture in which an antibiotic agent is not added is […], and the amount two hours after culture in which an antibiotic agent is added is […], the enrichment rate two hours after an antibiotic agent is added can be calculated by the following formula: Enrichment rate two hours after an antibiotic agent is added=[…])×100 (%) Alternatively, instead of comparing the enrichment rates, the amounts […] be compared directly. […]

[2] = system: bacterial 16S rRNA-derived gene; test: Amplification curve and melting curve analysis by real-time PCR (contamination of non-specific nucleic acid); set-up: species or system Escherichia coli; details: real-time PCR 60 cycles; template not added
Procedure: In order to investigate contamination of non-specific nucleic acid in the above-mentioned thermostable DNA polymerase preparations, analyses of an amplification curve and a melting curve were carried out by using real-time PCR. FIGS. 5(A) and FIG. 5(B) show analysis of amplification curves. FIGS. 6(A) and FIG. 6(B) show analysis of melting curves. Furthermore, FIG. 5(A) and FIG. 6(A) are graphs showing analysis carried out by using thermostable DNA polymerase preparation produced by using AmpliTaq Gold LD as a host. FIG. 5(B) and FIG. 6(B) are graphs showing analysis carried out by using thermostable DNA polymerase preparation produced by using S. cerevisiae as a host. Solid lines show a case in which Escherichia coli was added as a template, and broken lines show a case in which a template was not added. As the real-time PCR reagent, ×10 Buffer was obtained by adding 10 μl of ultrapure water into a 1b tube of LightCycler FastStart DNA Master SYBR GreenI (Roche). In this tube, dNTPs and SYBR GreenI in addition to a buffer reagent optimized for the Taq DNA polymerase are contained. […]

Bacillus cereus = test: Rapid liquid phase drug sensitivity test, enrichment rate by real-time PCR (e-DNAP, non-display method); format: cell-based; details: 10 μg/mL; four hours after culture; enrichment rate without antibiotic agent defined as 100%
Procedure: In current drug sensitivity tests, it generally takes several days to obtain results. However, when the highly sensitive quantification method in accordance with the present invention is applied, results can be obtained in only four to six hours. […] Accordingly, a sensitive test must be started once culture was carried out, so that it takes at least one day to obtain a result. An equal amount of each sample (for example, blood of septicemia) was infused into a liquid medium (BHI: Brain Heart Infusion), each sample medium was collected before culture, two hours after the culture, and four hours after the culture under the condition in which an antibiotic agent was added or not added, cells were subjected to centrifugation and pelletizing so as to obtain DNA, respectively. Furthermore, it is desirable that extraction of DNA is carried out by using an automatic nucleic acid extraction device. A real-time PCR reagent for detecting bacteria, conditions and the primer constitution were the same as in Example 2. When calculation is carried out when the quantification result before culture is defined as 0 and the quantification result two hours after and four hours after culture in which an antibiotic agent was not added is respectively defined as 100 (an enrichment rate when an antibiotic agent was not added is defined as 100%), the enrichment rate was calculated two hours after and four hours after the culture in which an antibiotic agent was added. For example, the amount of bacteria/fungi before culture is […], the amount of bacteria two hours after culture in which an antibiotic agent is not added is […], and the amount two hours after culture in which an antibiotic agent is added is […], the enrichment rate two hours after an antibiotic agent is added can be calculated by the following formula: Enrichment rate two hours after an antibiotic agent is added=[…])×100 (%) Alternatively, instead of comparing the enrichment rates, the amounts […] be compared directly. […]

Compound	drug sensitivity (comparison of amount of bacteria itself) [1]	contamination of non-specific nucleic acid in amplification curve and melting curve [2]	enrichment rate (Bacillus cereus) [%]
gentamicin	sensitivity to GM was not observed	–	–
AmpliTaq Gold LD: commercial thermostable DNA polymerase preparation (ABI), produced in bacteria and purified to minimize bacterial DNA	–	contamination of non-specific nucleic acid was observed	–
CC[C@H]1OC(=O)[C@H](C)[C@@H](O[C@H]2C[C@@](C)(OC)[C@@H](O)[C@H](C)O2)[C@H](C)[C@@H](O[C@@H]2O[C@H](C)C[C@H](N(C)C)[C@H]2O)[C@](C)(O)C[C@@H](C)C(=O)[C@H](C)[C@@H](O)[C@]1(C)O [erythromycin]	sensitivity to EM was observed	–	76
Cc1nnc(SCC2=C(C(=O)O)N3C(=O)[C@@H](NC(=O)Cn4cnnn4)[C@H]3SC2)s1 [cefazolin]	–	–	16
CC1(C)S[C@@H]2[C@H](NC(=O)[C@H](N)c3ccccc3)C(=O)N2[C@H]1C(=O)O [ampicillin]	–	–	0
